Experimental data: article PMC3448830 (Bioorganic & medicinal chemistry, 2012)

Legend:
[1] = following chronic administration; cited from earlier work
GABA-AT = GABA-AT (Sus scrofa, UniProt P80147); assay: Substrate activity for GABA-AT; type: biochemical, pig; conditions: for Km: substrate, Hanes-Woolf plots, pH 8.5, room temperature, 16 h
Sequence of GABA-AT (P80147 29-500): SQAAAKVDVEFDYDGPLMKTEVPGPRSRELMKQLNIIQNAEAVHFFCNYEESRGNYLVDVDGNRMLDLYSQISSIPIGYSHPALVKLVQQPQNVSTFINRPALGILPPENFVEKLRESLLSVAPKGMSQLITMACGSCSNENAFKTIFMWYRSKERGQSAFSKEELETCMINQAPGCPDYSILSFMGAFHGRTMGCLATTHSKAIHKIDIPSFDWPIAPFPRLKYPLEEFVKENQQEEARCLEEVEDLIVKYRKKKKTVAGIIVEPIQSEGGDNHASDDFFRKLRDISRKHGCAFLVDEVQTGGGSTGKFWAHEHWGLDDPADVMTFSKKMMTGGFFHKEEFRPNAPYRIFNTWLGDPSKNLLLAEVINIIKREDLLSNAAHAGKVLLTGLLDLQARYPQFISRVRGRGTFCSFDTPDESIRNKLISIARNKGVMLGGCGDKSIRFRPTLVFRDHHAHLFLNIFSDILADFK

For `C=CC(N)CCC(=O)O` (centres unmarked) [Compound 1, 4-aminohex-5-enoic acid], the “patients exhibiting irreversible abnormalities in peripherial vision” value [1] is given as 25–50%.

With `Cl.NCc1ccc(C(=O)O)o1` [Compound 4a, 5-(Aminomethyl)furan-2-carboxylic acid hydrochloride] the kcat/Km (GABA-AT; substrate efficiency) was “highest kcat/Km value”.

For `Cl.NCc1ccc(C(=O)O)s1` [Compound 4b, 5-(Aminomethyl)thiophene-2-carboxylic acid hydrochloride], the Km (GABA-AT) was “much higher”.

With `Cl.NCc1ccc(C(=O)O)[nH]1` [Compound 4c] the Km (GABA-AT) was “much higher”.

With `Cl.NCc1coc(C(=O)O)c1` [Compound 5a, 4-(Aminomethyl)furan-2-carboxylic acid hydrochloride] the “Km, fold lower than that of GABA” value (GABA-AT; relative to GABA) was “approximately 4 fold”.

In the case of `Cl.NCc1cscc1C(=O)O` [Compound 6b, 4-(Aminomethyl)thiophene-3-carboxylic acid hydrochloride], the “substrate activity (transamination)” value (GABA-AT) is reported as “Transamination was observed” and the Km (GABA-AT) is reported as > 10 mM.

With `Cl.[2H]C([2H])(N)c1coc(C(=O)O)c1` [[D2]-5a] the “^Hk/^Dk for substrate turnover (kinetic isotope effect)” value (GABA-AT; [D2]-5a evaluated alongside unlabeled 5a) was 1.22 ± 0.07.
